Reference: paper PMC9190014, “Structure, dynamics, and molecular inhibition of the Staphylococcus aureus m^1A22-tRNA methyltransferase TrmK” (The Journal of Biological Chemistry, 2022)
Read-outs that look alike come from different tables or passages of the source.

Columns and labels:
[1] = molecular target: T1, m1A22-tRNA methyltransferase TrmK (SaTrmK) (Staphylococcus aureus, UniProt Q2FY13); assay: ITC; co-crystal structure at […] Å; DSF; format: binding
T1 construct: gene SAOUHSC_01661; recombinant SaTrmK, His-tag cleaved by TEVP, N-terminal glycine residue left
T1 sequence (Q2FY13 entry or part of it): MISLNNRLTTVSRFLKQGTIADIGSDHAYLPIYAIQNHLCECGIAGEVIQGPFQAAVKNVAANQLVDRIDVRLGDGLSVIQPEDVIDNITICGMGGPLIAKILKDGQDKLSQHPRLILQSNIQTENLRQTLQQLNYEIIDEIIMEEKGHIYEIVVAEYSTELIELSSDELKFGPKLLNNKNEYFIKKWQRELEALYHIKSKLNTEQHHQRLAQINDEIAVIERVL

[2] = molecular target: T1, m1A22-tRNA methyltransferase TrmK (SaTrmK); assay: ITC; co-crystal structure at […] Å; DSF; format: binding; remark: listed apart in the source
[3] = molecular target: T1, m1A22-tRNA methyltransferase TrmK (SaTrmK); assay: intact-mass ESI-MS and LC-MS/MS peptide mapping of covalent adduct; MTase-Glo inhibition assay; format: binding
[4] = molecular target: T1, m1A22-tRNA methyltransferase TrmK (SaTrmK); assay: MTase-Glo methyltransferase assay with tRNA-Leu, single concentration; format: biochemical

## Nc1ncnc2c1ncn2[C@@H]1O[C@H](CSCC[C@H](N)C(=O)O)[C@@H](O)[C@H]1O [SAH]
[1]
  Kd: 0.94 ± 0.05 µM

## C[S@@+](CC[C@H](N)C(=O)O)C[C@H]1O[C@@H](n2cnc3c(N)ncnc32)[C@H](O)[C@@H]1O [SAM]
[2]
  Kd: 39 ± 4 µM

## CC1=CC(=O)c2c(O)cccc2C1=O [plumbagin, 5-hydroxy-2-methyl-1,4-naphtoquinone]
[3]
  inhibition at 5 µM: ~93%

## Nc1ncnc2c1ncn2[C@@H]1O[C@H](C[C@@H](N)CC[C@H](N)C(=O)O)[C@@H](O)[C@H]1O [sinefungin]
[4]
  inhibition at 10 µM: ~98%
